# How the values were obtained:
# rat thoracic aorta = settings: reported by Delpy and Gouville (1996); cited from earlier work
# [1] = test system: neuromuscular transmission; experiment: Contractions of gastrocnemius muscle induced by stimulation of the sciatic nerve; assay type: in vivo; settings: rat gastrocnemius
# Experimental: FIG. 30. Records of contractions induced by stimulation of the sciatic nerve of equilibrated rat gastrocnemius muscles and of arterial pressure. In control, contractions were induced by intravenous injection of DMSO ([…]). LASSBio-294 was administered in DMSO. Calibration: Horizontal, 1 cm=24 s; Vertical 2 g=100 mm Hg.
# FIG. 31. Records of contractions of rat gastrocnemius muscles induced by stimulation of the sciatic nerve and of arterial pressure. For control, contraction was induced by intravenous injection of […] (0.04 ml). LASSBio-294 was administered in DMSO.
SMILES,relaxant effect after removal of endothelium (rat thoracic aorta),depression of muscle contraction (test of functionality of the model) [1]
CCCOc1ccc(NS(C)(=O)=O)cc1-c1nc2c(c(C)nn2C)c(=O)[nH]1 [DMPPO],lost its effect,–
"C=CC[N@@+]12CC[C@@]34c5ccccc5N5/C=C6/[C@H]7C[C@H]8[C@@]9(CC[N@@+]8(CC=C)C/C7=C/CO)c7ccccc7N(/C=C(/[C@@H](C[C@@H]31)/C(=C\CO)C2)[C@H]54)[C@@H]69.[Cl-].[Cl-] [alloferine, reference compound]",–,depression of muscle contraction

# From patent US7091238B1, “Thienylhydrazon with digitalis-like properties (positive inotropic effects)” (University of Maryland, priority 1999, dated 2006)
